Laboratory results published in patent US9790173B2, “Alpha-7 nicotinic acetylcholine receptor modulators and uses thereof-I” (MERCK SHARP & DOHME CORP., priority 2012, dated 2017).

Key:
rat α7 nAChRs = target: T1, rat α7 nAChRs (Rattus norvegicus, UniProt Q05941); assay: Automated planar patch clamp (Patchliner) electrophysiology, α7 nAChR PAM activity; assay type: cell-based; parameters: key to Type I or Type II: I: Type 1 predominately affects the peak current; Type II modulators affect the peak current and also delay the desensitization of the receptor; settings: for Type I or Type II: modulator type based on the electrophysiology trace; for activation at 3 µM: GH4-C1, 3 μM compound in the presence of acetylcholine, GH4C1 cells expressing rat α7 nAChRs, peak current, read-out: Peak potentiation at 3 μM compound
T1 construct: expressed in transfected cells; host or cells: GH4C1 cells (rat pituitary line) stably expressing α7 nAChR
T1 sequence (Q05941 23-502): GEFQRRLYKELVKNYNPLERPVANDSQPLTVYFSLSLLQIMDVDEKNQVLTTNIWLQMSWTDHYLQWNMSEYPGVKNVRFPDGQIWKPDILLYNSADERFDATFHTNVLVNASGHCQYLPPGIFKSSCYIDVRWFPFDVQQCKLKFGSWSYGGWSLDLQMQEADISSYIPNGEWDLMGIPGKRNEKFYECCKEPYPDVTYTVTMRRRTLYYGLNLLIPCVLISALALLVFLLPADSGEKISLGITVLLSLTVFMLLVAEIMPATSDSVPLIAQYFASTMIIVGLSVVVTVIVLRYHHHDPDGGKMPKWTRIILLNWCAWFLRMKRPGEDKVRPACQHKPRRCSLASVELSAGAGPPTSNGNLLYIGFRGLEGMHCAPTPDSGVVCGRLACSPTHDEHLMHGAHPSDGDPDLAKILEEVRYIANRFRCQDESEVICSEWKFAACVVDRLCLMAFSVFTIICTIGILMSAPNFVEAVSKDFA
Description: Tested compounds were prepared by serial dilutions of 10 mM stock solution in DMSO to concentrations of the compound 1000 times higher than its final concentration. The DMSO stock solutions were then diluted 1:100 in the recording buffer bringing DMSO concentration to 1%. These intermediate solutions were further diluted 10 times with buffer to obtain final concentrations and lower DMSO concentration to 0.1%. […]
Compounds of the invention may be evaluated by electrophysiology using a Patchliner® (Nanion Technologies GmbH, Germany), an automated planar patch-clamp platform of medium throughput was used as a first step in electrophysiological assessment of α7 nAChR positive allosteric modulators (PAMs).
Briefly, intracellular (KCl—50 mM, NaCl—10 mM, KF—60 mM, EGTA—20 mM, HEPES—10 mM, pH—7.2, 285 mOsmol) and extracellular (NaCl—140 mM, KCl—4 mM, CaCl2—2 mM, MgCl2—1 mM, HEPES—10 mM, D-Glucose—5 mM, pH—7.4, 298 mOsmol) solutions were automatically pipetted onto NPC-16 chip (medium resistance ˜2.5-2.6 MΩ). Suspension of GH4C1 cells expressing rat α7 nAChRs was introduced in 4 wells of a medium resistance chip and suction was applied to attract cells in the holes. The extracellular solution was subsequently exchanged to high calcium solution (NaCl—80 mM, KCl—3 mM, CaCl2—45 mM, HEPES—10 mM, pH—7.4, 298 mOsmol) followed by gigaohm seal formation and obtaining whole-cell configuration. The rest of protocol was carried out in the high-calcium recording solution. Holding potential was −70 mV throughout the protocol. A control response to 60 or 100 μM of ACh was obtained first. Next, a cell was pre-incubated with compound of interest at 3 μM for ˜30 s after which the compound was co-applied with acetylcholine.
Amplitude of the responses was measured in HEKA Patchmaster software (HEKA Elektronik, Germany) and percentage of potentiation calculated. Recording was repeated […] a minimum of two replicates had been obtained per compound.
Compounds shown in Table 1 were evaluated by automated planar patch clamp on the Patchliner® as described in Example P2.1. […] The compounds are designated either as Type I or Type II modulators based on the electrophysiology trace. Type 1 predominately affects the peak current. Type II modulators affect the peak current and also delay the desensitization of the receptor.

Structure (SMILES)	melting point [°C]	Type I or Type II (rat α7 nAChRs)	activation at 3 µM (rat α7 nAChRs) [%]
COc1ccc(NC[C@@H]2[C@@H](c3ccc(S(N)(=O)=O)cc3)C23CCCC3)c(OC)n1 [Example 9, ±trans 4-(2-{[(2,6-dimethoxypyridin-3-yl)amino]methyl}spiro[2.4]hept-1-yl)benzenesulfonamide]	56 to 58	II	–
COc1ccc(Cl)cc1NC[C@H]1C[C@@H]1Cc1ccc(S(N)(=O)=O)cc1 [Example 54, ±trans 4-{[-2-{[(5-chloro-2-methoxyphenyl)amino]methyl}cyclopropyl]methyl}benzenesulfonamide]	126 to 128	I	574
COc1ccc(C(F)(F)F)cc1NC[C@@H]1[C@@H](c2ccc(S(N)(=O)=O)cc2)C1(C)C [Example 28, ±trans 4-[3-({[2-methoxy-5-(trifluoromethyl)phenyl]amino}methyl)-2,2-dimethylcyclopropyl]benzenesulfonamide]	68 to 70	II	–
CCOc1ccc(Cl)cc1NC[C@@H]1[C@@H](c2ccc(S(N)(=O)=O)cc2)C1(C)C [Example 27, ±trans 4-[3-{[(5-chloro-2-ethoxyphenyl)amino]methyl}-2,2-dimethylcyclopropyl]benzenesulfonamide]	122 to 124	I	–
CC1(C)[C@H](CNc2cc(Cl)ccc2C(F)(F)F)[C@H]1c1ccc(S(N)(=O)=O)cc1 [Example 45, ±trans 4-[3-({[5-chloro-2-(trifluoromethyl)phenyl]amino}methyl)-2,2-dimethylcyclopropyl]benzenesulfonamide]	124 to 126	I	–
COc1ccc(F)cc1NC[C@@H]1[C@@H](c2ccc(S(N)(=O)=O)cc2)C1(C)C [Example 23, ±trans 4-[3-{[(5-fluoro-2-methoxyphenyl)amino]methyl}-2,2-dimethylcyclopropyl]benzenesulfonamide]	164 to 166	II	–
Cc1ccc(Cl)cc1NC[C@@H]1[C@@H](c2ccc(S(N)(=O)=O)cc2)C1(C)C [Example 22, ±trans 4-[3-{[(5-chloro-2-methylphenyl)amino]methyl}-2,2-dimethylcyclopropyl]benzenesulfonamide]	60 to 62	II	–
Cc1ncccc1NC[C@@H]1[C@@H](c2ccc(S(N)(=O)=O)cc2)C1(C)C [Example 36, ±trans 4-[2,2-dimethyl-3-{[(2-methylpyridin-3-yl)amino]methyl}cyclopropyl]benzenesulfonamide]	174 to 176	II	125
Cc1cc(F)c(Cl)cc1NC[C@@H]1[C@@H](c2ccc(S(N)(=O)=O)cc2)C1(C)C [Example 37, ±trans 4-[3-{[(3-chloro-4-fluoro-2-methylphenyl)amino]methyl}-2,2-dimethylcyclopropyl]benzenesulfonamide]	164 to 166	II	–
CC(C)(C)c1cc(NC[C@@H]2C(c3ccc(S(N)(=O)=O)cc3)C2(C)C)no1 (mixture of isomers) [Example 35, ±trans 4-(3-{[(5-tert-butyl-1,2-oxazol-3-yl)amino]methyl)}2,2-dimethylcyclopropyl)benzenesulfonamide]	–	II	57
Cc1cccnc1NC[C@@H]1[C@@H](c2ccc(S(N)(=O)=O)cc2)C12CCCC2 [Example 49, ±trans 4-[2-{[(3-methylpyridin-2-yl)amino]methyl}spiro[2.4]hept-1-yl]benzenesulfonamide]	82 to 84	II	–
NS(=O)(=O)c1ccc([C@H]2C[C@@H]2CNc2cc(F)ccc2OC(F)(F)F)cc1 [Example 52, 4-[(1S,2S)-2-({[5-fluoro-2-(trifluoromethoxy)phenyl]amino}methyl)cyclopropyl]benzenesulfonamide]	115 to 118	II	–
CC1(C)[C@H](CNc2ccnc(C(F)(F)F)c2)[C@H]1c1ccc(S(N)(=O)=O)cc1 [Example 11, ±trans 4-[2,2-dimethyl-3-({[2-(trifluoromethyl)pyridin-4-yl]amino}methyl)cyclopropyl]benzenesulfonamide]	–	II	15
CC1(C)[C@@H](CNc2cc(F)ccc2OC(F)(F)F)[C@@H]1c1ccc(S(N)(=O)=O)cc1 [Example 41, ±trans 4-[3-({[5-fluoro-2-(trifluoromethoxy)phenyl]amino}methyl)-2,2-dimethylcyclopropyl]benzenesulfonamide]	–	I	–
COc1ccc(Cl)cc1NC[C@H]1C[C@@H]1c1ccc(S(N)(=O)=O)cc1 [Example 1, ±trans 4-(2-{[(5-chloro-2-methoxyphenyl)amino]methyl}cyclopropyl)benzenesulfonamide]	–	II	–
Cc1ccc(F)cc1NC[C@H]1[C@H](c2ccc(S(N)(=O)=O)cc2)C1(C)C [Example 31, 4-[(1S,3S)-3-{[(5-fluoro-2-methylphenyl)amino]methyl}-2,2-dimethylcyclopropyl]benzenesulfonamide]	–	II	–
Cc1cc(F)ccc1NC[C@H]1[C@H](c2ccc(S(N)(=O)=O)cc2)C1(C)C (single isomer, unassigned; enantiomer b) [Example 58, Enantiomer B of trans 4-[3-{[(4-fluoro-2-methylphenyl)amino]methyl}-2,2-dimethylcyclopropyl]benzenesulfonamide]	–	II	–
Cc1cc(F)ccc1NC[C@@H]1[C@@H](c2ccc(S(N)(=O)=O)cc2)C1(C)C (single isomer, unassigned; enantiomer a) [Example 57, Enantiomer A of trans 4-[3-{[(4-fluoro-2-methylphenyl)amino]methyl}-2,2-dimethylcyclopropyl]benzenesulfonamide]	–	I	473
COc1ccccc1NC[C@@H]1[C@@H](c2ccc(S(N)(=O)=O)cc2)C1(C)C [Example 25, ±trans 4-[3-{[(2-methoxyphenyl)amino]methyl}-2,2-dimethylcyclopropyl]benzenesulfonamide]	–	II	–
CC1(C)[C@H](CNC2CCCCC2(F)F)[C@H]1c1ccc(S(N)(=O)=O)cc1 (relative stereo) [Example 62, trans 4-(3-{[(2,2-difluorocyclohexyl)amino]methyl}-2,2-dimethylcyclopropyl)benzenesulfonamide]	–	II	38
CC1(C)[C@H](CNc2cccc(N3CCOCC3)c2)[C@H]1c1ccc(S(N)(=O)=O)cc1 [Example 26, ±trans 4-[2,2-dimethyl-3-({[3-(morpholin-4-yl)phenyl]amino}methyl)cyclopropyl]benzenesulfonamide]	–	II	455
CN(C[C@@H]1[C@@H](c2ccc(S(N)(=O)=O)cc2)C1(C)C)c1ccccc1 [Example 6, ±trans 4-(2,2-dimethyl-{[methyl(phenyl)amino]methyl}cyclopropyl)benzenesulfonamide]	–	I	506
COc1ccc(Cl)cc1NC[C@@H]1[C@@H](c2ccc(NS(C)(=O)=O)cc2)C1(C)C (single isomer, unassigned; enantiomer a) [Example 47]	–	I	867
COc1ccc(Cl)cc1NC[C@@H]1[C@@H](c2ccc(NS(C)(=O)=O)cc2)C1(C)C (racemic) [Example 46, ±trans N-{4-[3-{[(5-chloro-2-methoxyphenyl)amino]methyl}-2,2-dimethylcyclopropyl]phenyl}methanesulfonamide]	–	I	783
CC1(C)[C@H](CNc2cccc(Cl)c2)[C@H]1c1ccc(S(N)(=O)=O)cc1 [Example 24, ±trans 4-[3-{[(3-chlorophenyl)amino]methyl}-2,2-dimethylcyclopropyl]benzenesulfonamide]	120 to 122	II	901
COc1ccc(Cl)cc1NC[C@@H]1[C@@H](c2ccc(S(N)(=O)=O)cc2)C12CCCC2 [Example 8, ±trans 4-(2-{[(5-chloro-2-methoxyphenyl)amino]methyl}spiro[2.4]hept-1-yl)benzenesulfonamide]	–	II	–
